According to PubChem BioAssay AID206 (DTP/NCI, 2004):
“And” between values parts separate entries of the source, which are not always exact repeats. Equal values may be shown once. Results filed as inconclusive are left out.

Test system: nude mice, HT29 intrarenal xenograft, tumor weight T/C
Experiment: NCI In Vivo Anticancer Drug Screen. Data for tumor model HT29;CX-1 Human Adenocarcinoma (MER+) (intrarenal inoculation) in NU/NU Swiss (nude) mice
Details: endpoint: mean tumor weight change, higher = larger tumour
Outline: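 Readout: treated/vehicle-control ratio of the measured endpoint (tumor size or survival) in transplanted-tumor mice.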

[1] = dose: 75.0 mg/kg/injection, schedule: Q04DX004 (sc), vehicle: saline
[2] = dose: 150.0 mg/kg/injection, schedule: Q04DX004 (sc), vehicle: saline
[3] = dose: 50.0 mg/kg/injection, schedule: Q04DX004 (sc), vehicle: Klucel (hydroxypropylcellulose) (HPC)
[4] = dose: 200.0 mg/kg/injection, schedule: Q04DX004 (sc), vehicle: Klucel (hydroxypropylcellulose) (HPC)
[5] = dose: 300.0 mg/kg/injection, schedule: Q04DX004 (sc), vehicle: saline
[6] = dose: 100.0 mg/kg/injection, schedule: Q01DX010 (sc), vehicle: saline

[Cl][Mn][Cl]
T/C (dose: 18.75 mg/kg/injection, schedule: Q04DX004 (sc), vehicle: saline): 182 % of control | T/C [1]: 171 % of control | T/C [2]: 121 % of control

COc1ccc2c(c1)CCC(c1ccccc1)=C2c1ccc(OCCN2CCCC2)cc1
T/C [3]: 87 % of control | T/C [4]: 108 % of control | T/C (dose: 400.0 mg/kg/injection, schedule: Q04DX004 (sc), vehicle: Klucel (hydroxypropylcellulose) (HPC)): 52 % of control

CC1CN1C(=O)NCCCCCCNC(=O)N1CC1C (configuration not stated)
T/C (dose: 10.0 mg/kg/injection, schedule: Q04DX004 (sc), vehicle: Klucel (hydroxypropylcellulose) (HPC)): 36 % of control | T/C (dose: 40.0 mg/kg/injection, schedule: Q04DX004 (sc), vehicle: Klucel (hydroxypropylcellulose) (HPC)): 16 % of control

COc1cc2cc(c1Cl)N(C)C(=O)C[C@H](OC(=O)[C@H](C)N(C)C(C)=O)[C@]1(C)O[C@H]1[C@H](C)[C@@H]1C[C@@](O)(NC(=O)O1)[C@H](OC)C=C/C=C(\C)C2
T/C (dose: 50.0 micrograms/kg/injection, schedule: Q01DX010 (sc), vehicle: Klucel (hydroxypropylcellulose) (HPC)): 40 % of control | T/C (dose: 100.0 micrograms/kg/injection, schedule: Q01DX010 (sc), vehicle: Klucel (hydroxypropylcellulose) (HPC)): 93 % of control | T/C (dose: 200.0 micrograms/kg/injection, schedule: Q01DX010 (sc), vehicle: Klucel (hydroxypropylcellulose) (HPC)): 24 % of control

CSc1cc(C)[o+]c(C)c1
T/C [3]: 107 % of control | T/C (dose: 100.0 mg/kg/injection, schedule: Q04DX004 (sc), vehicle: Klucel (hydroxypropylcellulose) (HPC)): 57 % of control | T/C [4]: 41 % of control

Oc1c(Cl)cc(C(c2cc(Cl)c(O)c(Cl)c2)C(c2cc(Cl)c(O)c(Cl)c2)c2cc(Cl)c(O)c(Cl)c2)cc1Cl
T/C (dose: 450.0 mg/kg/injection, schedule: Q04DX004 (sc), vehicle: Klucel (hydroxypropylcellulose) (HPC)): 104 % of control | T/C (dose: 900.0 mg/kg/injection, schedule: Q04DX004 (sc), vehicle: Klucel (hydroxypropylcellulose) (HPC)): 95 % of control | T/C (dose: 1800.0 mg/kg/injection, schedule: Q04DX004 (sc), vehicle: Klucel (hydroxypropylcellulose) (HPC)): 96 % of control

CC1=CC(C)(C)Nc2ccc(CSc3ccccc3)cc21
T/C (dose: 75.0 mg/kg/injection, schedule: Q01DX010 (sc), vehicle: saline + Tween-80 + alcohol): 53 % of control | T/C (dose: 150.0 mg/kg/injection, schedule: Q01DX010 (sc), vehicle: saline + Tween-80 + alcohol): 74 % of control | T/C (dose: 300.0 mg/kg/injection, schedule: Q01DX010 (sc), vehicle: saline + Tween-80 + alcohol): 50 % of control | T/C (dose: 600.0 mg/kg/injection, schedule: Q01DX010 (sc), vehicle: saline + Tween-80 + alcohol): 66 % of control

CCCCCC[C@@H](O)C/C=C\CCCCCCCC(=O)OCCO
T/C [5]: 21 % of control | T/C (dose: 600.0 mg/kg/injection, schedule: Q04DX004 (sc), vehicle: saline): 155 % of control | T/C (dose: 1200.0 mg/kg/injection, schedule: Q04DX004 (sc), vehicle: saline): 169 % of control | T/C (dose: 2400.0 mg/kg/injection, schedule: Q04DX004 (sc), vehicle: saline): 230 % of control

CC[N](CC)[Ge]([CH2]C)[CH2]C.CC[N](CC)[Ge]([CH2]C)[CH2]C
T/C (dose: 12.5 mg/kg/injection, schedule: Q01DX010 (sc), vehicle: suspension in saline): 226 % of control | T/C (dose: 25.0 mg/kg/injection, schedule: Q01DX010 (sc), vehicle: suspension in saline): 158 % of control

COC(=O)C12OCC34C(CC5C(C)C6=CC(=O)OC6=CC5(C)C3C(O)C1O)OC(=O)C(OC(C)=O)C24 (configuration not stated)
T/C (dose: 1.25 mg/kg/injection, schedule: Q04DX004 (sc), vehicle: saline + alcohol): 115 % of control | T/C (dose: 5.0 mg/kg/injection, schedule: Q04DX004 (sc), vehicle: saline + alcohol): 171 % of control | T/C (dose: 10.0 mg/kg/injection, schedule: Q04DX004 (sc), vehicle: saline + alcohol): 165 % of control

CN1C(=O)C(=Cc2ccc(O)cc2)C(=O)N(C)C1=O
T/C (dose: 150.0 mg/kg/injection, schedule: Q04DX004 (sc), vehicle: saline with Tween-80): 116 % of control | T/C (dose: 300.0 mg/kg/injection, schedule: Q04DX004 (sc), vehicle: saline with Tween-80): 101 % of control | T/C (dose: 600.0 mg/kg/injection, schedule: Q04DX004 (sc), vehicle: saline with Tween-80): 99 % of control | T/C (dose: 1200.0 mg/kg/injection, schedule: Q04DX004 (sc), vehicle: saline with Tween-80): 74 % of control

CC1=C2CC(C)(C)/C=C\C(=O)/C(C)=C\C3=C[C@H](C)C[C@]3(O2)C1=O
T/C (dose: 50.0 mg/kg/injection, schedule: Q01DX010 (sc), vehicle: Klucel (hydroxypropylcellulose) (HPC)): 49 % of control

COc1ccc2cc1Oc1ccc(cc1)C[C@H]1c3cc(c(OC)cc3CCN1C)Oc1c(OC)c(OC)cc3c1[C@H](C2)N(C)CC3
T/C (dose: 100.0 mg/kg/injection, schedule: Q01DX010 (sc), vehicle: saline with Tween-80): 102 % of control | T/C (dose: 200.0 mg/kg/injection, schedule: Q01DX010 (sc), vehicle: saline with Tween-80): 33 % of control | T/C (dose: 400.0 mg/kg/injection, schedule: Q01DX010 (sc), vehicle: saline with Tween-80): 28 % of control | T/C (dose: 800.0 mg/kg/injection, schedule: Q01DX010 (sc), vehicle: saline with Tween-80): 27 % of control

CC1CN1P1(N2CC2C)=NP(N2CC2C)(N2CC2C)=NP(N2CC2C)(N2CC2C)=N1 (configuration not stated)
T/C (dose: 50.0 mg/kg/injection, schedule: Q01DX010 (sc), vehicle: saline): 79 % of control | T/C [6]: 101 % of control

NC(=O)NO
T/C (dose: 37.5 mg/kg/injection, schedule: Q04DX004 (sc), vehicle: saline): 75 % of control | T/C [1]: 79 % of control | T/C [2]: 75 % of control | T/C [5]: 86 % of control

[N-]=[N+]=CC(=O)CCC(=O)C=[N+]=[N-]
T/C (dose: 36.0 mg/kg/injection, schedule: Q04DX004 (sc), vehicle: DMSO): 85 % of control and 99 % of control | T/C (dose: 72.0 mg/kg/injection, schedule: Q04DX004 (sc), vehicle: DMSO): 79 % of control

N=C(N)Sc1cc(O)ccc1O
T/C [1]: 49 % of control | T/C [2]: 54 % of control | T/C [5]: 54 % of control

CC(=O)OC1C(O)C(C)OC(OC2C(OC(=O)C3CCC4C(C3)OC3(CC(OC(=O)/C=C/c5ccccc5)C(C)CO3)C43CO3)OC(C)C(O)C2OC(C)=O)C1O (configuration not stated)
T/C (dose: 15.0 mg/kg/injection, schedule: Q04DX004 (sc), vehicle: distilled water + Tween-80): 100 % of control | T/C (dose: 30.0 mg/kg/injection, schedule: Q04DX004 (sc), vehicle: distilled water + Tween-80): 62 % of control | T/C (dose: 60.0 mg/kg/injection, schedule: Q04DX004 (sc), vehicle: distilled water + Tween-80): 61 % of control | T/C (dose: 120.0 mg/kg/injection, schedule: Q04DX004 (sc), vehicle: distilled water + Tween-80): 91 % of control

O=C1c2cccc3cc([N+](=O)[O-])cc(c23)C(=O)N1CCN1CCCC1
T/C (dose: 18.0 mg/kg/injection, schedule: Q04DX004 (sc), vehicle: saline with Tween-80): 110 % of control | T/C (dose: 36.0 mg/kg/injection, schedule: Q04DX004 (sc), vehicle: saline with Tween-80): 115 % of control

c1cc[c]([Sn][c]2ccccc2)cc1
T/C (dose: 80.0 mg/kg/injection, schedule: Q01DX010 (sc), vehicle: saline): 88 % of control | T/C (dose: 160.0 mg/kg/injection, schedule: Q01DX010 (sc), vehicle: saline): 113 % of control | T/C (dose: 320.0 mg/kg/injection, schedule: Q01DX010 (sc), vehicle: saline): 122 % of control

O=NN(CCCl)C(=O)NC1CCCCC1
T/C (dose: 8.0 mg/kg/injection, schedule: Q01DX010 (sc), vehicle: saline with Tween-80): 85 % of control | T/C (dose: 8.0 mg/kg/injection, schedule: Q04DX004 (sc), vehicle: carboxymethylcellulose (CMC)): 99 % of control | T/C (dose: 16.0 mg/kg/injection, schedule: Q01DX010 (sc), vehicle: saline with Tween-80): 42 % of control | T/C (dose: 16.0 mg/kg/injection, schedule: Q04DX004 (sc), vehicle: carboxymethylcellulose (CMC)): 86 % of control | T/C (dose: 25.0 mg/kg/injection, schedule: Q04DX004 (sc), vehicle: Klucel (hydroxypropylcellulose) (HPC)): 63 % of control | T/C (dose: 32.0 mg/kg/injection, schedule: Q01DX010 (sc), vehicle: saline with Tween-80): 77 % of control | T/C (dose: 32.0 mg/kg/injection, schedule: Q04DX004 (sc), vehicle: carboxymethylcellulose (CMC)): 89 % of control | T/C [3]: 116 % of control | T/C (dose: 64.0 mg/kg/injection, schedule: Q04DX004 (sc), vehicle: carboxymethylcellulose (CMC)): 101 % of control

CC1=C(/C=C/C(C)=C/C=C/C(C)=C/C(=O)O)C(C)(C)CCC1
T/C (dose: 12.5 mg/kg/injection, schedule: Q01DX010 (sc), vehicle: saline with Tween-80): 153 % of control | T/C (dose: 25.0 mg/kg/injection, schedule: Q01DX010 (sc), vehicle: saline with Tween-80): 176 % of control | T/C (dose: 50.0 mg/kg/injection, schedule: Q01DX010 (sc), vehicle: saline with Tween-80): 123 % of control

CCN(CC)CCNc1ccc(C)c2sc3ccccc3c(=O)c12
T/C [6]: 87 % of control
